Earlier results on two molecules are cited in publication PMC7179450, “Primary Human Hepatocytes, But not HepG2 or Balb/c 3T3 Cells, Efficiently Metabolize Salinomycin and Are Resistant to Its Cytotoxicity” (Molecules, 2020).

This data set relates to all tested cell models. Further details: method as in PMID 30012479. Particulars: cited from earlier work.

Molecules are shown by their SMILES. Where two headings read alike, the source gives them in different places.

With `C[C@]12C=CC(=O)C=C1CC[C@@H]1[C@@H]2[C@@H](O)C[C@@]2(C)[C@H]1CC[C@]2(O)C(=O)CO` [prednisolone], under “prednisolone 1 µg/mL”, the “cytotoxicity at tested concentrations” value was “non-cytotoxic”. As for `C=C[C@]1(C)C[C@@H](OC(=O)CSCCN(CC)CC)[C@]2(C)[C@H](C)CC[C@]3(CCC(=O)[C@H]32)[C@@H](C)[C@@H]1O` [tiamulin], the “cytotoxicity at tested concentrations” value (tiamulin 1 or 10 µg/mL) is given as “non-cytotoxic”.
